{"source": "paper PMC10810714", "about": "“Antiretroviral Drug Exposure and Response in Obese and Morbidly Obese People With Human Immunodeficiency Virus (HIV): A Study Combining Modelling and Swiss HIV Cohort Data” (Clinical Infectious Diseases: An Official Publication of …, 2023)", "key": {"[1]": {"test_system": "HIV viral load", "assay": "Drug response in obese versus nonobese participants in the SHCS (concentration below efficacy threshold and viral load >50 copies/mL)", "procedure": "The viral load was analyzed in conjunction with the TDM data to evaluate whether a decrease in ARV exposure in obese PWH is associated with a viral load of more than 50 copies/mL (the viral load measured on the date of the TDM assessment was considered for this evaluation)."}, "[2]": {"parameters": "method as in earlier work", "conditions": "PBPK model parameter, supplement reference list; cited from earlier work"}, "[3]": {"conditions": "clinical study; cited from earlier work"}, "[4]": {"assay": "Observed pharmacokinetics of antiretrovirals in nonobese and obese individuals (SHCS therapeutic drug monitoring data and literature studies, noncompartmental analysis)", "source_text": "(§1) We took several steps to analyse the impact of obesity on the ARVs exposure and response. First, we implemented our in-house PBPK model with our recently published virtual White obese population to simulate the pharmacokinetics of ARVs in nonobese and obese individuals. Next, we verified the simulations against the TDM data collected during the follow-up visits of the SHCS (multiple drug levels per individual were allowed [more information on the SHCS in the homonymous section in the Supplementary Material]). We then applied the verified model to extrapolate the pharmacokinetics across different obesity classes. Finally, the clinical relevance of obesity-related changes on drug response was evaluated by analyzing HIV viral load and the corresponding TDM values in obese and nonobese individuals in the SHCS.\n(§2) All ARV drug models, except for doravirine (Supplementary Table 1), were previously developed and verified to predict the pharmacokinetics in healthy and elderly PWH [6, 12]. […] The TDM data were excluded if the participant’s age was younger than 20 or older than 50 years to avoid the age-related confounding effect on the pharmacokinetics, if a nonstandard ARV dosage was used, and if concurrent medications with inhibitory or inducing effects were used. The pharmacokinetic parameters including peak plasma concentration (Cmax), area under the curve to time t (AUCt), and trough concentration (Cτ) were derived from the TDM data using noncompartmental analysis.\n(§3) A literature search was also performed to identify pharmacokinetic studies with ARVs conducted in obese and nonobese individuals. Data on the study design, characteristics of the participants, and pharmacokinetic results were collected. […] Available concentration-time profiles were digitalized using GetData Graph Digitizer V.2.26. The virtual trials were conducted by matching the participants’ demographics (eg, age, proportion of females, and BMI) and the ARV dosing regimen (Supplementary Table 2). The models were considered verified if the simulations were within 2-fold of observed data.\nThe Swiss HIV Cohort Study (SHCS) is an ongoing, nationwide, multicenter, clinic-based prospective cohort study in Switzerland with continuous enrollment and follow-up (twice a year) of people with HIV (PWH). Socio-demographic, clinical and laboratory data are recorded in detail. […] The collection of therapeutic drug monitoring (TDM) data in the SHCS database was initiated in 1998. All available TDM data for each evaluated antiretroviral drug were extracted from the SHCS database representing 6210 and 575 data points for the verification of the simulations in non-obese and obese individuals, respectively."}, "[5]": {"conditions": "nonobese, standard oral dose at steady state; GM (mean for etravirine, emtricitabine, tenofovir); literature studies only, ref Supplementary Table 2 [9-16, 21-24]; cited from earlier work"}, "[6]": {"test_system": "CYP3A4", "assay": "Doravirine PBPK model parameter: CYP3A4 intrinsic clearance", "assay_type": "in vitro ADME", "conditions": "Retrograde calculation", "source_text": "Supplementary Table 1. Doravirine PBPK model parameters."}, "[7]": {"parameters": "method as in earlier work", "conditions": "PBPK model parameter, supplement reference list; cited from earlier work", "remark": "listed apart in the source"}, "[8]": {"assay": "PBPK model virtual trials matched to the observed studies (model verification, nonobese vs obese)", "parameters": "species or system human", "source_text": "as §1, §2, §3"}}, "data": [{"smiles": "Cn1c(Cn2ccc(C(F)(F)F)c(Oc3cc(Cl)cc(C#N)c3)c2=O)n[nH]c1=O", "note": "[Doravirine, doravirine]", "values": [{"measurement": "% PWH with concentration below efficacy threshold", "setting": "[1]; BMI 18.5–30 kg/m^2", "value": 0, "unit": "%"}, {"measurement": "% PWH with virological failure amongst those with concentration below efficacy threshold", "setting": "[1]; BMI 18.5–30 kg/m^2, viral load above 50 copies/mL", "value": 0, "unit": "%"}, {"measurement": "% PWH with concentration below efficacy threshold", "setting": "[1]; BMI >30 kg/m^2", "value": 25, "unit": "%"}, {"measurement": "% PWH with virological failure amongst those with concentration below efficacy threshold", "setting": "[1]; BMI >30 kg/m^2, viral load above 50 copies/mL", "value": 0, "unit": "%"}, {"measurement": "drug type", "setting": "[2]", "value": "Monoprotic base"}, {"measurement": "log P (octanol-water partition coefficient)", "setting": "[2]", "value": 3.0}, {"measurement": "pKa1", "setting": "[2]", "value": 9.5}, {"measurement": "Increase in Cτ in obese compared with nonobese PWH", "setting": "[3]", "value": 22, "unit": "%"}, {"measurement": "Cτ, observed, obese individuals", "setting": "[4]; obese (BMI >=30, range per drug), standard oral dose at steady state, GM (mean for etravirine), SHCS TDM data with or without literature data", "value": 513, "unit": "ng/mL"}, {"measurement": "Cτ, Ratio Obese/Nonobese, Observed", "setting": "[4]; observed data", "value": 1.27}, {"measurement": "AUCt, observed, nonobese individuals", "setting": "[5]", "value": "17 498 ng*h/mL"}, {"measurement": "Cmax, observed, nonobese individuals", "setting": "[5]", "value": 1226, "unit": "ng/mL"}, {"measurement": "Cτ, observed, nonobese individuals", "setting": "[5]", "value": 404, "unit": "ng/mL"}, {"measurement": "t1/2, observed, nonobese individuals", "setting": "[5]", "value": 13.5, "unit": "h"}, {"measurement": "CYP3A4 CLint (intrinsic clearance)", "setting": "[6]", "value": 0.032, "unit": "µl/min/pmol enzyme"}, {"measurement": "Apparent permeability", "setting": "[7]", "value": "25 10^-6 cm/sec"}, {"measurement": "BP (blood-plasma-ratio)", "setting": "[7]", "value": 1.0}, {"measurement": "CLrenal (renal clearance)", "setting": "[7]", "value": 0.566, "unit": "L/h"}, {"measurement": "fup (fraction unbound in plasma)", "setting": "[7]", "value": 0.24}, {"measurement": "Cτ, Ratio (Predicted Ratio Obese/Nonobese)/(Observed Ratio Obese/Nonobese)", "setting": "[8]", "value": 0.79}, {"measurement": "AUCt, Ratio Predicted/Observed, Nonobese", "setting": "[8]; nonobese individuals", "value": 1.00}, {"measurement": "Cmax, Ratio Predicted/Observed, Nonobese", "setting": "[8]; nonobese individuals", "value": 1.10}, {"measurement": "Cτ, Ratio Predicted/Observed, Nonobese", "setting": "[8]; nonobese individuals", "value": 0.86}, {"measurement": "t1/2, Ratio Predicted/Observed, Nonobese", "setting": "[8]; nonobese individuals", "value": 1.03}, {"measurement": "Cτ, Ratio Predicted/Observed, Obese", "setting": "[8]; obese individuals", "value": 0.68}, {"measurement": "Predictions within x-fold of observed clinical data", "setting": "[8]; pharmacokinetic parameters in obese and nonobese individuals, 1.25-fold 'for the most part'", "value": "≤ 1.25", "unit": "fold"}]}]}
